Measured values: US9120749B2, “Quinoline derivatives and MELK inhibitors containing the same” (ONCOTHERAPY SCIENCE, INC., priority 2010, dated 2015)
Structures can show the parent of a compound that is named as a salt. Where two headings read alike, the source gives them in different places.

What was measured:
[1] = system: HT-1197 cells; experiment: Cell-based assay: anti-proliferative activity, Cell Counting Kit-8, 72 hours (HT-1197, negative control without MELK expression); settings: Homo sapiens, HT1197, 72 h, 72 hours
Method: (§1) To evaluate the expression status of MELK in several cell lines, western blot analysis was performed using crude cell lysate collected from those cells. Anti-MELK antibody (clone 31, BD Biosciences) was used to visualize the expression.
(§2) Active candidate inhibitors against MELK were evaluated for their target-specific cytotoxicity using T47D, A549, BT-549, and HT-1197 cells was used for negative control. 100 micro-L of cell suspension was seeded onto 96-well microtiter plate (ViewPlate-96FTC, PerkinElmer). The initial cell concentration of T47D, A549, BT-549, and HT-1197 were 3,000 cells/well, 2,000 cells/well and 2,500 cells/well, respectively. Cellular growth was determined using Cell Counting Kit-8 (DOJINDO) at 72 hours after the exposure of the candidate inhibitors. […] Accurate IC50 values were calculated as described previously.

[2] = system: A549 cells; experiment: Cell-based assay: anti-proliferative activity, Cell Counting Kit-8, 72 hours (A549); settings: Homo sapiens, A549, 72 h, 72 hours
Method: as §2, with “100” for “Active candidate inhibitors against MELK were evaluated for their target-specific cytotoxicity using T47D, A549, BT-549, and HT-1197 cells was used for negative control. 100”

[3] = system: T47D cells; experiment: Cell-based assay: anti-proliferative activity, Cell Counting Kit-8, 72 hours (T47D); settings: Homo sapiens, T47D, 72 h
Method: as §1, §2

[4] = target: MELK (Homo sapiens, UniProt Q14680); experiment: Kinase assay: MELK activity, phosphorylation of FITC-labeled histone H3 peptide measured by IMAP fluorescence polarization; type: biochemical; settings: read-out: IC50 (μM) (kinase assay)
Method: MELK activity was determined in the presence or absence of compounds using fluorescein isothiocyanate-labeled (FITC-labeled) histone H3 peptide as a substrate. […] Test compounds were dissolved in DMSO at 12.5 mM and then serially diluted as the DMSO concentration in the assays to be 1%. […] The reaction was stopped by the addition of three fold assay volume of progressive binding solution. Following 0.5 hour incubation at room temperature, fluorescence polarization was measured by Wallac EnVision 2103 multilabel reader (PerkinElmer).

[5] = HT1197 cells (negative control, no MELK expression)
[6] = 50 micro-M ATP, FITC-labeled histone H3 peptide substrate, IMAP fluorescence polarization
[7] = HT1197 cells (negative control)

Chain of MELK (Q14680 whole entry, looked up): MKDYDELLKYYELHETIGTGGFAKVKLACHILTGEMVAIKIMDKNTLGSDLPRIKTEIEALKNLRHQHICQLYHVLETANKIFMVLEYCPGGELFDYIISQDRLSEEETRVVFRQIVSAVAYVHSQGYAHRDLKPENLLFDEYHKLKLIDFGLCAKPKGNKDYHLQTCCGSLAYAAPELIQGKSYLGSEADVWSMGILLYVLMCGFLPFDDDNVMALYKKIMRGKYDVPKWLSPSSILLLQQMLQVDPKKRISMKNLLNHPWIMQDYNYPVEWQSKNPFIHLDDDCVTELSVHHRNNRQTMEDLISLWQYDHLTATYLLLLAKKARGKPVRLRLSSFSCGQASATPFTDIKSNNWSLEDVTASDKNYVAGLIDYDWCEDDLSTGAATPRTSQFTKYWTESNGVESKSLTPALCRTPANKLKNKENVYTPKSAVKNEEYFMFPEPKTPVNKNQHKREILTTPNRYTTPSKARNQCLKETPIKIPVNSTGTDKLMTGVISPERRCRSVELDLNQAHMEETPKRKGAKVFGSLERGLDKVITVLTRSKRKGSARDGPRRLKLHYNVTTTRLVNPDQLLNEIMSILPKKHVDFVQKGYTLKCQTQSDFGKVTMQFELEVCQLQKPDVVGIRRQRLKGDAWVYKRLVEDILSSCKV

CN1CCCC1c1ccc(Nc2c(C(=O)C3CC3)cnc3ccc(-c4cc(Cl)c(O)c(Cl)c4)cc23)nc1 (centres unmarked) [Example 445]
IC50 [1, 5]: 10 µM
IC50 [2]: 4.1 µM
IC50 [3]: 7.5 µM
IC50 [4, 6]: 0.022 µM

CC(=O)c1cnc2ccc(-c3cnc(C#N)nc3)cc2c1Nc1ccc(CN2CCCC2)cc1 [Example 413, 5-(3-acetyl-4-(4-(pyrrolidin-1-ylmethyl)phenylamino)quinolin-6-yl)pyrimidine-2-carbonitrile]
IC50 [1, 5]: 1.2 µM
IC50 [2]: 1.7 µM
IC50 [3]: 0.35 µM
IC50 [4, 6]: 0.0029 µM

COc1cc(-c2ccc3ncc(C#N)c(N4CCC(CN5CCCC5)CC4)c3c2)cc(Cl)c1O [Example 428, 6-(3-chloro-4-hydroxy-5-methoxyphenyl)-4-(4-(pyrrolidin-1-ylmethyl)piperidin-1-yl)quinoline-3-carbonitrile]
IC50 [1, 5]: 13 µM
IC50 [2]: 2.6 µM
IC50 [3]: 7.6 µM
IC50 [4, 6]: 0.0037 µM

COc1cc(-c2cc(F)c3ncc(C(=O)C4CC4)c(Nc4ccc(CN(C)C)cc4)c3c2)cc(Cl)c1O [Example 551, (6-(3-chloro-4-hydroxy-5-methoxyphenyl)-4-(4-((dimethylamino)methyl)phenylamino)-8-fluoroquinolin-3-yl)(cyclopropyl)methanone]
IC50 [1, 7]: 6.9 µM
IC50 [3]: 2 µM
IC50 [4]: 1.1 µM

COc1cc(-c2cc(F)c3ncc(C(=O)C4CC4)c(N[C@H]4CC[C@H](N)CC4)c3c2)cc(Cl)c1O [Example 564]
IC50 [1, 7]: 1.8 µM
IC50 [3]: 0.43 µM
IC50 [4]: 0.26 µM

CN(C)Cc1ccc(Nc2c(C(=O)C3CC3)cnc3c(F)cc(-c4cc(F)c(O)c(Cl)c4)cc23)cc1 [Example 563, (6-(3-chloro-5-fluoro-4-hydroxyphenyl)-4-(4-((dimethylamino)methyl)phenylamino)-8-fluoroquinolin-3-yl)(cyclopropyl)methanone]
IC50 [1, 7]: 3.3 µM
IC50 [3]: 1.3 µM
IC50 [4]: 1.8 µM

CN(C)Cc1ccc(Nc2c(C(=O)C3CC3)cnc3c(F)cc(-c4cc(Cl)c(O)c(Cl)c4)cc23)cc1 [Example 552, cyclopropyl(6-(3,5-dichloro-4-hydroxyphenyl)-4-(4-((dimethylamino)methyl)phenylamino)-8-fluoroquinolin-3-yl)methanone]
IC50 [1, 7]: 9 µM
IC50 [3]: 1.1 µM
IC50 [4]: 0.58 µM

CCCC(=O)c1cnc2ccc(-c3cc(Cl)c(O)c(Cl)c3)cc2c1Nc1ccc(N2CCNCC2)nc1 [Example 625, 1-(6-(3,5-dichloro-4-hydroxyphenyl)-4-(6-(piperazin-1-yl)pyridin-3-ylamino)quinolin-3-yl)butan-1-one]
IC50 [1, 7]: 10 µM
IC50 [3]: 1.5 µM
IC50 [4]: 0.15 µM

CN(C)CC1CCN(c2c(C(=O)C3CC3)cnc3ccc(-c4ccc5c(c4)CC(=O)N5)cc23)CC1 [Example 474]
IC50 [1, 5]: 10 µM
IC50 [3]: 10 µM

COc1cc(-c2ccc3ncc(C(=O)C4CC4)c(NCC(=O)N4CCN(C)CC4)c3c2)cc(Cl)c1O [Example 395, 2-(6-(3-chloro-4-hydroxy-5-methoxyphenyl)-3-(cyclopropanecarbonyl)quinolin-4-ylamino)-1-(4-methylpiperazin-1-yl)ethanone]
IC50 [1, 5]: 10 µM
IC50 [3]: 10 µM
IC50 [4, 6]: 1 µM

COc1cc(-c2ccc3ncc(C(=O)C4CC4)c(-c4cn[nH]c4)c3c2)cc(Cl)c1O [Example 536, (6-(3-chloro-4-hydroxy-5-methoxyphenyl)-4-(1H-pyrazol-4-yl)quinolin-3-yl)(cyclopropyl)methanone]
IC50 [1, 7]: 14 µM
IC50 [3]: 1.3 µM
IC50 [4]: 0.11 µM

CN[C@H]1CC[C@H](Nc2c(C(C)=O)cnc3ccc(-c4cc(F)c(O)c(Cl)c4)cc23)CC1 [Example 560]
IC50 [1, 7]: 10 µM
IC50 [3]: 0.041 µM
IC50 [4]: 0.11 µM

COc1cc(-c2ccc3ncc(C(=O)C4CC4)c(Nc4ccc(C5CCCN5C)cn4)c3c2)cc(Cl)c1O (centres unmarked) [Example 444]
IC50 [1, 5]: 10 µM
IC50 [2]: 7.6 µM
IC50 [3]: 6.8 µM

CN1CCN(C(=O)CNc2c(C(=O)C3CC3)cnc3ccc(-c4ccc(O)c(Cl)c4)cc23)CC1 [Example 393, 2-(6-(3-chloro-4-hydroxyphenyl)-3-(cyclopropanecarbonyl)quinolin-4-ylamino)-1-(4-methylpiperazin-1-yl)ethanone]
IC50 [2]: 2.2 µM
IC50 [3]: 2.6 µM
IC50 [4, 6]: 0.095 µM

COc1cc(-c2ccc3ncc(C(C)=O)c(Nc4ccc(CN5CCCC5)cc4)c3c2)cc(Cl)c1O [Example 419, 1-(6-(3-chloro-4-hydroxy-5-methoxyphenyl)-4-(4-(pyrrolidin-1-ylmethyl)phenylamino)quinolin-3-yl)ethanone]
IC50 [1, 5]: 5.1 µM
IC50 [2]: 0.84 µM
IC50 [3]: 0.99 µM

O=C(c1cnc2ccc(-c3cc(Cl)c(O)c(Cl)c3)cc2c1Nc1ccc(CN2CCC(F)(F)C2)cc1)C1CC1 [Example 581, cyclopropyl(6-(3,5-dichloro-4-hydroxyphenyl)-4-(4-((3,3-difluoropyrrolidin-1-yl)methyl)phenylamino)quinolin-3-yl)methanone]
IC50 [1, 7]: 5.3 µM
IC50 [3]: 1.4 µM
IC50 [4]: 0.63 µM

CC(=O)c1cnc2ccc(-c3cnc(C#N)nc3)cc2c1Nc1ccc(CN(C)C)cc1 [Example 414, 5-(3-acetyl-4-(4-((dimethylamino)methyl)phenylamino)quinolin-6-yl)pyrimidine-2-carbonitrile]
IC50 [1, 5]: 0.8 µM
IC50 [2]: 1.5 µM
IC50 [3]: 0.24 µM

CN(C)CC1CCN(c2c(C(=O)C3CC3)cnc3ccc(-c4ccc(OC(F)F)cc4)cc23)CC1 [Example 458]
IC50 [1, 5]: 8.4 µM
IC50 [3]: 7.2 µM

Cc1cc(O)c(Cl)cc1-c1ccc2ncc(C(=O)C3CC3)c(N3CCC(CN(C)C)CC3)c2c1 [Example 448]
IC50 [1, 5]: 7.9 µM
IC50 [2]: 1.7 µM
IC50 [3]: 2 µM

O=C(c1cnc2ccc(-c3cc(F)c(O)c(Cl)c3)cc2c1NC1CCC(N2CCC(F)(F)C2)CC1)C1CC1 (centres unmarked) [Example 675, (6-(3-chloro-5-fluoro-4-hydroxyphenyl)-4-(4-(3,3-difluoropyrrolidin-1-yl)cyclohexylamino)quinolin-3-yl)(cyclopropyl)methanone]
IC50 [1, 5]: 4.4 µM
IC50 [3]: 0.8 µM
IC50 [4]: 0.83 µM

N[C@H]1CC[C@H](Nc2c(C(=O)C3CC3)cnc3c(F)cc(-c4cc(F)c(O)c(Cl)c4)cc23)CC1 [Example 555]
IC50 [1, 7]: 10 µM
IC50 [3]: 0.44 µM
IC50 [4]: 5.1 µM

COc1cc(-c2ccc3ncc(C(=O)C4CC4)c(NC4CCC(N5CCC(F)(F)C5)CC4)c3c2)cc(Cl)c1O (centres unmarked) [Example 676, (6-(3-chloro-4-hydroxy-5-methoxyphenyl)-4-(4-(3,3-difluoropyrrolidin-1-yl)cyclohexylamino)quinolin-3-yl)(cyclopropyl)methanone]
IC50 [1, 5]: 11 µM
IC50 [3]: 1 µM
IC50 [4]: 0.29 µM

CN(C)CC1CCN(c2c(C(=O)C3CC3)cnc3ccc(-c4ccc(C(F)F)cc4)cc23)CC1 [Example 465]
IC50 [1, 5]: 5.6 µM
IC50 [3]: 8.6 µM
IC50 [4, 6]: 0.91 µM

O=C(c1cnc2ccc(-c3cc(Cl)c(O)c(Cl)c3)cc2c1NC1CCC(N2CCC(F)(F)C2)CC1)C1CC1 (centres unmarked) [Example 664, cyclopropyl(6-(3,5-dichloro-4-hydroxyphenyl)-4-(4-(3,3-difluoropyrrolidin-1-yl)cyclohexylamino)quinolin-3-yl)methanone]
IC50 [1, 5]: 10 µM
IC50 [3]: 1.7 µM
IC50 [4]: 0.14 µM

CN(C)CC1CCN(c2c(C(=O)C3CC3)cnc3ccc(-c4ccc(C(=O)O)cc4)cc23)CC1 [Example 492, 4-(3-(cyclopropanecarbonyl)-4-(4-((dimethylamino)methyl)piperidin-1-yl)quinolin-6-yl)benzoic acid]
IC50 [1, 5]: 10 µM
IC50 [3]: 10 µM
IC50 [4]: 1.4 µM

COC(=O)c1ccc(-c2ccc3ncc(C(=O)C4CC4)c(N4CCC(CN(C)C)CC4)c3c2)cc1 [Example 481, methyl 4-(3-(cyclopropanecarbonyl)-4-(4-((dimethylamino)methyl)piperidin-1-yl)quinolin-6-yl)benzoate]
IC50 [1, 5]: 10 µM
IC50 [3]: 10 µM
IC50 [4]: 1.4 µM

N[C@H]1CC[C@H](Nc2c(C(=O)C3CC3)cnc3c(F)cc(-c4cc(Cl)c(O)c(Cl)c4)cc23)CC1 [Example 565]
IC50 [1, 7]: 10 µM
IC50 [3]: 0.3 µM
IC50 [4]: 2.1 µM

CC(=O)c1cnc2ccc(-c3ccc4nc[nH]c4c3)cc2c1Nc1cccc(CCN2CCCC2)c1 [Example 896, 1-(6-(1H-benzo[d]imidazol-6-yl)-4-((3-(2-(pyrrolidin-1-yl)ethyl)phenyl)amino)quinolin-3-yl)ethanone hydrochloride]
IC50 ([4]; MELK kinase assay, IMAP fluorescence polarization, 50 micro-M ATP): 0.22 µM
